Test results published in PubChem BioAssay (NCI).
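The compound was tested at five concentrations on cells cultured in 96-well plates, with a 48-hour exposure period. GI50 marks 50% less growth. TGI is the concentration that stops growth completely.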

Columns and labels:
Experiment in all cases: inhibition of tumour cell growth, NCI panel, 48 h
SK-OV-3 ovarian = tested on: SK-OV-3 ovarian
ACHN renal = tested on: ACHN renal
IGROV1 ovarian = tested on: IGROV1 ovarian
MALME-3M melanoma = tested on: MALME-3M melanoma
OVCAR-4 ovarian = tested on: OVCAR-4 ovarian
CAKI-1 renal = tested on: CAKI-1 renal
SF-539 CNS = tested on: SF-539 CNS
EKVX NSCLC = tested on: EKVX NSCLC
HCC-2998 colon = tested on: HCC-2998 colon
SNB-75 CNS = tested on: SNB-75 CNS

| SMILES | GI50 (SK-OV-3 ovarian) [µM] | TGI (SK-OV-3 ovarian) [µM] | GI50 (ACHN renal) [nM] | TGI (ACHN renal) [µM] | GI50 (IGROV1 ovarian) [nM] | TGI (IGROV1 ovarian) [µM] | GI50 (MALME-3M melanoma) [nM] | TGI (MALME-3M melanoma) [µM] | GI50 (OVCAR-4 ovarian) [nM] | TGI (OVCAR-4 ovarian) [µM] | GI50 (CAKI-1 renal) [nM] | TGI (CAKI-1 renal) [µM] | GI50 (SF-539 CNS) [nM] | TGI (SF-539 CNS) [µM] | GI50 (EKVX NSCLC) [µM] | TGI (EKVX NSCLC) [µM] | GI50 (HCC-2998 colon) [nM] | TGI (HCC-2998 colon) [µM] | GI50 (SNB-75 CNS) [nM] | TGI (SNB-75 CNS) [µM] |
| --- | --- | --- | --- | --- | --- | --- | --- | --- | --- | --- | --- | --- | --- | --- | --- | --- | --- | --- | --- | --- |
| Cc1ccc(C=C2C(Cl)=C(Cl)C(Cl)=C2Cl)cc1 | 2.03 | 4.62 | 700 | 1.94 | 553 | 1.64 | 933 | 2.62 | 1000 | 2.75 | 503 | 2.16 | 1450 | 2.81 | 1.4 | 4.28 | 1470 | 2.93 | 1160 | 2.44 |
| COc1cc(-c2nc3sc(C)cn3c2/C=C2\C(=O)Nc3ccccc32)c(Br)c(OC)c1OC | 28.9 | 73.8 | 32100 | > 100 | 23400 | > 100 | 26100 | 78.5 | 44100 | > 100 | 22600 | 57 | 19200 | 38.3 | 39.3 | > 100 | 29000 | 78 | 22200 | 51.5 |
| COc1ccc(C2ON(c3ccccc3)CC=C2C)cc1 (stereo not given) | – | > 100 | – | > 100 | – | > 100 | – | > 100 | – | > 100 | – | > 100 | – | > 100 | – | > 100 | – | > 100 | – | > 100 |
| CCOC(=O)C(CCC(N)=O)(CCC(=O)OC)C(=O)OCC | – | > 100 | – | > 100 | – | > 100 | – | > 100 | – | > 100 | – | > 100 | – | > 100 | – | > 100 | – | > 100 | – | > 100 |
| CC(C)(C)CC(C)(C)c1ccc(O)c(Cc2ccc(Cl)cc2Cl)c1 | 1.5 | 2.82 | 1680 | 3.05 | 1700 | 3.12 | 1680 | 3.24 | 1590 | 2.93 | 1310 | 2.58 | 1840 | 3.36 | 1.57 | 2.94 | 1790 | 3.25 | 1690 | 3.08 |
| COc1ccc(/C=C2\COc3ccc(O)c(O)c3C2=O)c(OC)c1OC | 3.24 | > 100 | 1780 | 3.96 | 2090 | 7.21 | 1770 | 4.34 | 2740 | 17.8 | 2420 | 11.3 | 2400 | 6.87 | 3.65 | 25.8 | 2180 | 4.48 | 3090 | 86.6 |
| C[C@@H](NS(=O)(=O)c1ccc(NC(=O)c2ccccc2)cc1)C(=O)O | – | > 100 | – | > 100 | – | > 100 | – | > 100 | – | > 100 | – | > 100 | – | > 100 | – | > 100 | – | > 100 | – | > 100 |
| COC(=O)c1cc2oc(/C=C3/SC(=S)N(N)C3=O)cc2n1Cc1ccccc1 | 4.25 | 20 | 7080 | 25.8 | 1350 | 4.82 | 1910 | 17.7 | 4680 | 42.8 | 2980 | 20.6 | 2300 | 6.3 | 7.17 | > 81.8 | 3890 | 19.1 | 887 | 11.3 |
| O=C(O)c1cc(=O)cc(C(=O)O)o1 | > 100 | > 100 | > 100000 | > 100 | > 100000 | > 100 | > 100000 | > 100 | > 100000 | > 100 | > 100000 | > 100 | > 100000 | > 100 | > 100 | > 100 | > 100000 | > 100 | > 100000 | > 100 |
| OCC[N+]12CCCN1CCC2 | – | > 100 | – | > 100 | – | > 100 | – | > 100 | – | > 100 | – | > 100 | – | > 100 | – | > 100 | – | > 100 | – | > 100 |
| Cc1[nH]c2ccccc2c1CC/C(=N\Nc1ccccc1)c1ccccc1 | – | > 100 | – | > 100 | – | > 100 | – | > 100 | – | > 100 | – | > 100 | – | > 100 | – | > 100 | – | > 100 | – | > 100 |
